In ChEMBL document CHEMBL4813945, “Discovery and development of novel pyrimidine and pyrazolo/thieno-fused pyrimidine derivatives as potent and orally active inducible nitric oxide synthase dimerization inhibitor with efficacy for arthritis” (Eur J Med Chem, 2021):

Legend:
[1] = test system: RAW264.7; assay: Antiinflammatory activity against mouse RAW264.7 cells assessed as inhibition of LPS-induced NO production at 10 uM preincubated for 1 hrs followed by LPS stimulation and measured after 24 hrs by Griess assay relative to control; format: functional; details: time 25 hrs
[2] = test system: L02; assay: Antiinflammatory activity against human L02 assessed as inhibition of LPS-induced NO production preincubated for 1 hrs followed by LPS stimulation and measured after 24 hrs by Griess assay relative to control; format: functional, cell-based
[3] = test system: RAW264.7; assay: Cytotoxicity against mouse RAW264.7 cells at 20 uM measured after 24 hrs; format: cell-based; details: raw264.7, 24 h

Compound | inhibition at 10 µM [1] [%] | IC50 [2] [µM] | Activity [3]
COc1cc(/C=C/c2nc(Cl)cc(NCCc3ccc(F)cc3)n2)cc(OC)c1OC | 55.9 | < 40 | Non-Toxic
CCCc1nn(C)c2c(NCCc3ccccc3)nc(/C=C/c3cccnc3)nc12 | 77.4 | > 1000 | Non-Toxic
CNc1nc(/C=C/c2ccccc2)nc2ccsc12 | 21.9 | > 1000 | Non-Toxic
CCCCNc1nc(/C=C/c2ccccc2)nc2ccsc12 | 22.4 | > 1000 | Non-Toxic
CCCc1nn(C)c2c(NCc3ccc(F)cc3)nc(CCc3cccnc3)nc12 | 18.8 | < 40 | Non-Toxic
COc1cc(/C=C/c2nc(NCc3ccco3)c3sccc3n2)cc(OC)c1OC | 46.5 | 189 | Non-Toxic
CCCc1nn(C)c2c(NCc3ccc(F)cc3)nc(/C=C/c3ccc[n+]([O-])c3)nc12 | 64.6 | < 40 | Non-Toxic
COc1cc(/C=C/c2nccc(NCCc3ccccc3)n2)cc(OC)c1OC | 85 | < 40 | Non-Toxic
C(=C\c1nc(Nc2ccccc2)c2sccc2n1)/c1ccccc1 | 21 | > 1000 | Non-Toxic
CCCc1nn(C)c2c(N3CCOCC3)nc(/C=C/c3cccnc3)nc12 | 69.9 | 535 | Non-Toxic
Fc1ccc(CCNc2nc(/C=C/c3ccccc3)nc3ccsc23)cc1 | 29.8 | > 1000 | Non-Toxic
CCCc1nn(C)c2c(NCCc3ccccc3)nc(/C=C/c3nc(C)c(C)nc3C)nc12 | 52.7 | < 40 | Non-Toxic
C(=C\c1ccco1)/c1nc(N2CCOCC2)c2sccc2n1 | 28.1 | > 1000 | Non-Toxic
CCCc1nn(C)c2c(NCc3ccc(F)cc3)nc(/C=C/c3nc(C)c(C)nc3C)nc12 | 63.4 | > 1000 | Non-Toxic
CCCc1nn(C)c2c(N3CCS(=O)(=O)CC3)nc(/C=C/c3ccc[n+]([O-])c3)nc12 | 3.13 | > 1000 | Non-Toxic
COc1cc(/C=C/c2nc(NCc3ccccc3Cl)c3sccc3n2)cc(OC)c1OC | 21.9 | > 1000 | Non-Toxic
CCCc1nn(C)c2c(N3CCS(=O)(=O)CC3)nc(/C=C/c3cccnc3)nc12 | 60.2 | 472 | Non-Toxic
Clc1ccc(CNc2nc(/C=C/c3ccco3)nc3ccsc23)cc1 | 13 | > 1000 | Non-Toxic
Brc1ccc(Nc2nc(/C=C/c3ccccc3)nc3ccsc23)cc1 | 19.5 | > 1000 | Non-Toxic
CCCc1nn(C)c2c(N3CCOCC3)nc(/C=C/c3nc(C)c(C)nc3C)nc12 | 74.2 | 370 | Non-Toxic
COc1cc(/C=C/c2nccc(NC(C)C)n2)cc(OC)c1OC | 61 | < 40 | Non-Toxic
CCCc1nn(C)c2c(NCCc3cccc(Cl)c3)nc(/C=C/c3nc(C)c(C)nc3C)nc12 | 68.8 | 786 | Non-Toxic
COc1cc(/C=C/c2nc(N3CCN(C)CC3)c3sccc3n2)cc(OC)c1OC | 39.3 | > 1000 | Non-Toxic
C(=C\c1ccco1)/c1nc(NC2CC2)c2sccc2n1 | 33.3 | > 1000 | Non-Toxic
CCN1CCN(c2nc(/C=C/c3cc(OC)c(OC)c(OC)c3)nc3ccsc23)CC1 | 46.7 | > 1000 | Non-Toxic
CCCc1nn(C)c2c(NC3CC3)nc(/C=C/c3ccc[n+]([O-])c3)nc12 | 29.2 | 580 | Non-Toxic
CCCc1nn(C)c2c(NCCc3ccccc3)nc(CCc3cccnc3)nc12 | 36.5 | 783 | Non-Toxic

Compound | inhibition at 10 µM [1] [%] | IC50 [2] [µM] | Activity [3]
CCCc1nn(C)c2c(NC(C)C)nc(CCc3cccnc3)nc12 | 30.2 | 514 | Non-Toxic
Fc1ccccc1CNc1nc(/C=C/c2ccco2)nc2ccsc12 | 11.7 | > 1000 | Non-Toxic
COc1cc(/C=C/c2nc(Cl)cc(NC(C)C)n2)cc(OC)c1OC | 29 | < 40 | Non-Toxic
COc1cc(/C=C/c2nccc(NCCc3ccc(F)cc3)n2)cc(OC)c1OC | 47 | 544 | Non-Toxic
COc1cc(/C=C/c2nc(O)nc(NCCc3ccc(F)cc3)n2)cc(OC)c1OC | 36.5 | 483 | Non-Toxic
CN1CCN(c2nc(/C=C/c3ccccc3)nc3ccsc23)CC1 | 18.5 | 198 | Non-Toxic
CCCc1nn(C)c2c(N3CCS(=O)(=O)CC3)nc(CCc3cccnc3)nc12 | 15.6 | > 1000 | Non-Toxic
CCCc1nn(C)c2c(NC(C)C)nc(/C=C/c3nc(C)c(C)nc3C)nc12 | 54.8 | 342 | Non-Toxic
FC(F)(F)c1ccc(Nc2nc(/C=C/c3ccccc3)nc3ccsc23)cc1 | 30.1 | > 1000 | Non-Toxic
CCCc1nn(C)c2c(NC(C)C)nc(/C=C/c3cccnc3)nc12 | 74.2 | 574 | Non-Toxic
COc1cc(/C=C/c2nc(N3CCOCC3)c3sccc3n2)cc(OC)c1OC | 12.2 | > 1000 | Non-Toxic
COc1cccc(CNc2nc(/C=C/c3ccccc3)nc3ccsc23)c1 | 30.7 | > 1000 | Non-Toxic
Fc1ccccc1CCNc1nc(/C=C/c2ccccc2)nc2ccsc12 | 29.8 | > 1000 | Non-Toxic
CCCc1nn(C)c2c(NC(C)C)nc(/C=C/c3ccc[n+]([O-])c3)nc12 | 45.8 | 324 | Non-Toxic
COc1cc(/C=C/c2nc(Cl)cc(NCCc3ccccc3)n2)cc(OC)c1OC | 31.2 | < 40 | Non-Toxic
CCCc1nn(C)c2c(NCCc3cccc(Cl)c3)nc(CCc3cccnc3)nc12 | 37.5 | 612 | Non-Toxic
CCCc1nn(C)c2c(N3CCOCC3)nc(CCc3cccnc3)nc12 | 27.1 | 859 | Non-Toxic
Brc1ccc(CNc2nc(/C=C/c3ccccc3)nc3ccsc23)cc1 | 19.5 | > 1000 | Non-Toxic
CCCc1nn(C)c2c(NC3CC3)nc(CCc3cccnc3)nc12 | 7.29 | 564 | Non-Toxic
CNc1nc(/C=C/c2cc(OC)c(OC)c(OC)c2)nc2ccsc12 | 39.5 | > 1000 | Non-Toxic
CCCc1nn(C)c2c(N3CCS(=O)(=O)CC3)nc(/C=C/c3nc(C)c(C)nc3C)nc12 | 51.6 | < 40 | Non-Toxic
CC(C)c1ccc(Nc2nc(/C=C/c3ccco3)nc3ccsc23)cc1 | 31.7 | > 1000 | Non-Toxic
COc1cc(/C=C/c2nc(Nc3ccc(C)cc3)c3sccc3n2)cc(OC)c1OC | 19.2 | < 40 | Non-Toxic
CCCc1nn(C)c2c(NCCc3cccc(Cl)c3)nc(/C=C/c3ccc[n+]([O-])c3)nc12 | 37.5 | 162 | Non-Toxic
CCCc1nn(C)c2c(N3CCOCC3)nc(/C=C/c3ccc[n+]([O-])c3)nc12 | 20.8 | 817 | Non-Toxic
COc1cc(/C=C/c2nc(N3CCCC3)c3sccc3n2)cc(OC)c1OC | 33.2 | 681 | Non-Toxic
CN(c1ccccc1)c1nc(/C=C/c2ccccc2)nc2ccsc12 | 24.9 | > 1000 | Non-Toxic
